In the NIST ThermoML archive (doi:10.1021/acs.jced.8b01004):
Numbers after ± are expanded uncertainties.

Assay: xn = mol fraction of the nth substance listed
Settings: 100 kPa, Liquid; for viscosity: Falling or rolling sphere viscometry; for mass density: Vibrating tube method

OC1CCCC1 [cyclopentanol] + CC1CCCCC1
Settings	mass density [kg/m3]	viscosity [mPa·s]
293.15 K, x2 = 0	946.99 ± 1.5	11.88 ± 0.25
293.15 K, x2 = 0.0995	924.17 ± 1.5	7.639 ± 0.16
293.15 K, x2 = 0.2005	902.36 ± 1.4	4.929 ± 0.11
293.15 K, x2 = 0.2971	882.38 ± 1.4	3.505 ± 0.076
293.15 K, x2 = 0.4001	862.34 ± 1.4	2.41 ± 0.052
293.15 K, x2 = 0.5014	843.89 ± 1.4	1.793 ± 0.039
293.15 K, x2 = 0.5994	827.06 ± 1.3	1.396 ± 0.03
293.15 K, x2 = 0.6828	813.6 ± 1.3	1.166 ± 0.025
293.15 K, x2 = 0.7949	796.76 ± 1.3	0.96 ± 0.021
293.15 K, x2 = 0.8975	782.42 ± 1.3	0.826 ± 0.018
298.15 K, x2 = 0	943.05 ± 1.5	9.722 ± 0.21
298.15 K, x2 = 0.0995	920.12 ± 1.5	6.316 ± 0.14
298.15 K, x2 = 0.2005	898.22 ± 1.4	4.183 ± 0.089
298.15 K, x2 = 0.2971	878.17 ± 1.4	3.03 ± 0.065
298.15 K, x2 = 0.4001	858.07 ± 1.4	2.123 ± 0.045
298.15 K, x2 = 0.5014	839.58 ± 1.4	1.602 ± 0.034
298.15 K, x2 = 0.5994	822.73 ± 1.3	1.268 ± 0.027
298.15 K, x2 = 0.6828	809.25 ± 1.3	1.071 ± 0.023
298.15 K, x2 = 0.7949	792.38 ± 1.3	0.89 ± 0.019
298.15 K, x2 = 0.8975	778.04 ± 1.3	0.772 ± 0.017
303.15 K, x2 = 0	939.05 ± 1.5	8.068 ± 0.17
303.15 K, x2 = 0.0995	916.02 ± 1.5	5.48 ± 0.12
303.15 K, x2 = 0.2005	894.03 ± 1.4	3.587 ± 0.077
303.15 K, x2 = 0.2971	873.91 ± 1.4	2.644 ± 0.057
303.15 K, x2 = 0.4001	853.76 ± 1.4	1.885 ± 0.04
303.15 K, x2 = 0.5014	835.24 ± 1.3	1.445 ± 0.031
303.15 K, x2 = 0.5994	818.37 ± 1.3	1.16 ± 0.025
303.15 K, x2 = 0.6828	804.87 ± 1.3	0.989 ± 0.021
303.15 K, x2 = 0.7949	787.97 ± 1.3	0.827 ± 0.018
303.15 K, x2 = 0.8975	773.63 ± 1.2	0.722 ± 0.016
308.15 K, x2 = 0	935 ± 1.5	7.077 ± 0.15
308.15 K, x2 = 0.0995	911.87 ± 1.5	4.66 ± 0.099
308.15 K, x2 = 0.2005	889.79 ± 1.4	3.099 ± 0.066
308.15 K, x2 = 0.2971	869.61 ± 1.4	2.324 ± 0.05
308.15 K, x2 = 0.4001	849.41 ± 1.4	1.685 ± 0.036
308.15 K, x2 = 0.5014	830.86 ± 1.3	1.312 ± 0.028
308.15 K, x2 = 0.5994	813.97 ± 1.3	1.065 ± 0.023
308.15 K, x2 = 0.6828	800.45 ± 1.3	0.916 ± 0.02
308.15 K, x2 = 0.7949	783.54 ± 1.3	0.771 ± 0.017
308.15 K, x2 = 0.8975	769.19 ± 1.2	0.677 ± 0.015
313.15 K, x2 = 0	930.91 ± 1.5	6.04 ± 0.13
313.15 K, x2 = 0.0995	907.67 ± 1.5	4.046 ± 0.086
313.15 K, x2 = 0.2005	885.51 ± 1.4	2.695 ± 0.058
313.15 K, x2 = 0.2971	865.27 ± 1.4	2.055 ± 0.044
313.15 K, x2 = 0.4001	845.02 ± 1.4	1.514 ± 0.032
313.15 K, x2 = 0.5014	826.44 ± 1.3	1.196 ± 0.026
313.15 K, x2 = 0.5994	809.53 ± 1.3	0.982 ± 0.021
313.15 K, x2 = 0.6828	796 ± 1.3	0.851 ± 0.018
313.15 K, x2 = 0.7949	779.07 ± 1.3	0.721 ± 0.016
313.15 K, x2 = 0.8975	764.73 ± 1.2	0.636 ± 0.014
318.15 K, x2 = 0	926.75 ± 1.5	5.19 ± 0.11
318.15 K, x2 = 0.0995	903.41 ± 1.4	3.487 ± 0.074
318.15 K, x2 = 0.2005	881.17 ± 1.4	2.361 ± 0.05
318.15 K, x2 = 0.2971	860.88 ± 1.4	1.828 ± 0.039
318.15 K, x2 = 0.4001	840.59 ± 1.4	1.368 ± 0.029
318.15 K, x2 = 0.5014	821.99 ± 1.3	1.093 ± 0.023
318.15 K, x2 = 0.5994	805.06 ± 1.3	0.907 ± 0.019
318.15 K, x2 = 0.6828	791.51 ± 1.3	0.793 ± 0.017
318.15 K, x2 = 0.7949	774.57 ± 1.2	0.677 ± 0.015
318.15 K, x2 = 0.8975	760.23 ± 1.2	0.6 ± 0.013
323.15 K, x2 = 0	922.53 ± 1.5	4.441 ± 0.095
323.15 K, x2 = 0.0995	899.09 ± 1.4	3.037 ± 0.065
323.15 K, x2 = 0.2005	876.78 ± 1.4	2.081 ± 0.044
323.15 K, x2 = 0.2971	856.11 ± 1.4	1.635 ± 0.035
323.15 K, x2 = 0.4001	836.11 ± 1.4	1.241 ± 0.027
323.15 K, x2 = 0.5014	817.49 ± 1.3	1.004 ± 0.022
323.15 K, x2 = 0.5994	800.54 ± 1.3	0.842 ± 0.018
323.15 K, x2 = 0.6828	786.98 ± 1.3	0.74 ± 0.016
323.15 K, x2 = 0.7949	770.03 ± 1.2	0.636 ± 0.014
323.15 K, x2 = 0.8975	755.7 ± 1.2	0.566 ± 0.012
328.15 K, x2 = 0	918.24 ± 1.5	3.83 ± 0.082
328.15 K, x2 = 0.0995	894.72 ± 1.4	2.674 ± 0.057
328.15 K, x2 = 0.2005	872.33 ± 1.4	1.843 ± 0.039
328.15 K, x2 = 0.2971	851.95 ± 1.4	1.472 ± 0.031
328.15 K, x2 = 0.4001	831.58 ± 1.3	1.13 ± 0.024
328.15 K, x2 = 0.5014	812.94 ± 1.3	0.924 ± 0.02
328.15 K, x2 = 0.5994	795.97 ± 1.3	0.782 ± 0.017
328.15 K, x2 = 0.6828	782.41 ± 1.3	0.692 ± 0.015
328.15 K, x2 = 0.7949	765.45 ± 1.2	0.599 ± 0.013
328.15 K, x2 = 0.8975	751.14 ± 1.2	0.537 ± 0.012
333.15 K, x2 = 0	913.89 ± 1.5	3.312 ± 0.07
333.15 K, x2 = 0.0995	890.28 ± 1.4	2.366 ± 0.05
333.15 K, x2 = 0.2005	867.83 ± 1.4	1.642 ± 0.035
333.15 K, x2 = 0.2971	847.4 ± 1.4	1.329 ± 0.028
333.15 K, x2 = 0.4001	827 ± 1.3	1.033 ± 0.022
333.15 K, x2 = 0.5014	808.34 ± 1.3	0.853 ± 0.018
333.15 K, x2 = 0.5994	791.36 ± 1.3	0.731 ± 0.016
333.15 K, x2 = 0.6828	777.79 ± 1.3	0.65 ± 0.014
333.15 K, x2 = 0.7949	760.84 ± 1.2	0.566 ± 0.012
333.15 K, x2 = 0.8975	746.55 ± 1.2	0.51 ± 0.011
338.15 K, x2 = 0	909.48 ± 1.5	2.886 ± 0.061
338.15 K, x2 = 0.0995	885.78 ± 1.4	2.109 ± 0.045
338.15 K, x2 = 0.2005	863.28 ± 1.4	1.471 ± 0.031
338.15 K, x2 = 0.2971	842.8 ± 1.4	1.205 ± 0.026
338.15 K, x2 = 0.4001	822.37 ± 1.3	0.948 ± 0.02
338.15 K, x2 = 0.5014	803.69 ± 1.3	0.79 ± 0.017
338.15 K, x2 = 0.5994	786.71 ± 1.3	0.683 ± 0.015
338.15 K, x2 = 0.6828	773.13 ± 1.2	0.611 ± 0.013
338.15 K, x2 = 0.7949	756.2 ± 1.2	0.536 ± 0.012
338.15 K, x2 = 0.8975	741.93 ± 1.2	0.486 ± 0.011
343.15 K, x2 = 0	904.99 ± 1.4	2.53 ± 0.054
343.15 K, x2 = 0.0995	881.21 ± 1.4	1.879 ± 0.04
343.15 K, x2 = 0.2005	858.67 ± 1.4	1.326 ± 0.029
343.15 K, x2 = 0.2971	838.13 ± 1.4	1.108 ± 0.024
343.15 K, x2 = 0.4001	817.69 ± 1.3	0.873 ± 0.019
343.15 K, x2 = 0.5014	799 ± 1.3	0.734 ± 0.016
343.15 K, x2 = 0.5994	782.01 ± 1.3	0.641 ± 0.014
343.15 K, x2 = 0.6828	768.43 ± 1.2	0.577 ± 0.012
343.15 K, x2 = 0.7949	751.51 ± 1.2	0.517 ± 0.011
343.15 K, x2 = 0.8975	737.27 ± 1.2	0.464 ± 0.01
